The text below walks through data of paper PMC9598883, “An Optimized Workflow for the Discovery of New Antimicrobial Compounds Targeting Bacterial RNA Polymerase Complex Formation” (Antibiotics, 2022).

Converted amounts (≈) assume the structure as drawn.

As usually defined, the MIC is the lowest concentration that inhibits growth of the organism. Higher therefore signals a less susceptible organism. The IC50 is the point on the concentration scale where inhibition reaches its midpoint.

Data set [1] has as its system Saccharomyces cerevisiae (W303). Description: Yeast growth inhibition assay. The format is cell-based. As to conditions: wild-type W303. An excerpt: (§1) To avoid the characterization of hit compounds lacking antibacterial activity, we subsequently tested the ability of the 18 ELISA-validated compounds to inhibit bacterial growth, using the previously identified indol-3-yl-urea derivative 4 as a reference. Two nonpathogenic bacteria were employed for this assay: the gram-positive B. subtilis (WB800N strain) and the gram-negative E. coli (DH10T1R strain). […] The remaining twelve compounds might have been unable to cross the bacterial membrane or were modified and/or extruded from the cell. […] This additional assay, which was conducted on a wild-type (W303) rather than on the hyperpermeable Δerg6 strain, is not part of our streamlined antibiotic discovery workflow and was only aimed at verifying the cytotoxicity prediction reliability of yBRET.
(§2) For growth inhibition assays, bacteria were grown to exponential phase (OD600 = 0.5–0.6) and then diluted 100-fold with LB. PMBN (2 μg/mL) for E. coli was added at this stage. Yeast strain W303-1A (leu2-3,112 trp1-1 can1-100 ura3-1 ade2-1 his3-11,15) was grown at 30 °C in YPD to an OD600 of 0.5. The growth of the bacterial (or yeast) cells was monitored for 8 h in the presence of the candidate compounds dissolved in DMSO (final concentration of 5%) or an equivalent amount of DMSO as a negative control (“vehicle”). Growth inhibition assays were conducted in triplicate in 96-well plates (Microtest Plate 96 Well, F, flat base, Sarstedt, Nümbrecht, North Rhine-Westphalia, Germany) by monitoring cell growth (OD600) every 30 min with a microplate reader (TriStar^2 LB 942; Berthold Technologies, Bad Wildbad, Baden-Württemberg, Germany) for bacteria and every 1 h for yeast.

Another data set deals with B. subtilis WB800N. Description: MIC assay, B. subtilis. Format: cell-based, Bacillus subtilis. To be noted: for MIC: Bacillus subtilis, WB800N. On the procedure: (§3) Growth inhibition tests and minimum inhibitory concentration (MIC) assay on the gram-positive B. subtilis WB800N strain (nprE aprE epr bpr mpr::ble nprB::bsr Δvpr wprA::hyg cm::neo; NeoR) (MoBiTec GmbH, Lotzestraße, Göttingen, Germany) and on the gram-negative nonpathogenic E. coli DH10 T1R strain (F-mcrA Δ(mrr-hsdRMS-mcrBC) Φ80lacZ ΔM15 ΔlacX74 recA1 endA1 araD139Δ(ara, leu)7697 galU galK λ-rpsL nupG) (Invitrogen, Waltham, MA, USA) were performed as described in Sartini et al..
(§4) Antimicrobial activity was determined by means of the minimum inhibitory concentration (MIC) assay, according to the Clinical & Laboratory Standards Institute (CLSI) guidelines described in ([37]). The assays were performed in 96-well microplates in 20% MH broth in PBS. A 2.5 × 10^5 CFU/mL medium-phase bacterial suspension in 20% MH broth was used and the microplates were incubated at 37 °C for 24 h. […] The results were derived from at least three independent experiments conducted in duplicate.

The next data set concerns E. coli (DH10T1R strain). Description: Bacterial growth inhibition assay, E. coli. The format is cell-based, Escherichia coli. To be noted: for inhibition at 100 µM: 8 h, in the presence of PMBN (2 μg/mL).
Excerpt: as §1, §3, §2

In data set [2] the target is T1, β′–σ^70 PPI (GST-β′ aa 1–334 / His-tagged σ^70) (Escherichia coli, UniProt P0A8T7).
T1 construct: 50 nM GST-β′ (aa 1–334); made in house; host or cells: bacterial expression (pET28-b / pGEX4-T3 vectors)
T1 sequence (P0A8T7 1-334): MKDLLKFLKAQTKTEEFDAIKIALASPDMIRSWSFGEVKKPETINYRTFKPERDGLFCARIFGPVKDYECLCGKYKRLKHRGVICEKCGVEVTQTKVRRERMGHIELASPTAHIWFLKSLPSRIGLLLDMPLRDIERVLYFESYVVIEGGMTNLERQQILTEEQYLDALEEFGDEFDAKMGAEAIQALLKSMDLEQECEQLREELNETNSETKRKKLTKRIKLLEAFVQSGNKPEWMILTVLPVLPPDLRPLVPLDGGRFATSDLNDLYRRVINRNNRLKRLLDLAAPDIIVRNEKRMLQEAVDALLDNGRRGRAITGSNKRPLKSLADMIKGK
Description: Competitive ELISA of β′–σ^70 interaction. Format: binding, E. coli. As to conditions: for IC50: read-out: Binding Inhibition IC50 ± SD; for inhibition at 100 µM: fixed concentration of 100 μM, read-out: β′–σ70 binding inhibition, ELISA 100 μM (percentage inhibition ± SD). Here is the method:
In this in vitro set-up, individual candidate molecules (each at 100 µM concentration) were incubated with β’ before the addition of σ^70 and assessment of interaction reconstitution with an antibody directed against the σ^70 fusion tag. Eighteen of the 28 yBRET-positive compounds were thus confirmed as true inhibitors of the β’–σ^70 PPI (i.e., they inhibited the interaction by at least 50%); their structures and percentage inhibition values are reported in Table S1.
The production of recombinant proteins, the standard ELISA, and the “reverse” ELISA were performed following the protocols described in Sartini et al.. The full-length sequence coding for E. coli σ^70 was cloned into a modified pET28-b in-frame with an N-terminal 6xHis tag-sequence and was expressed in LB medium for 3 h at 30 °C following addition of 1 mM isopropyl-β-D-thiogalactopyranoside (IPTG).
The RNAP β’ 1–334 aa. coding sequence was cloned into a modified pGEX4-T3 expression vector (Amersham Biosciences, Amersham, Buckinghamshire, England) and was expressed for 24 h at 20 °C under auto-induction conditions (Auto Induction Medium, AIM-LB broth base; ForMedium™, Swaffham, Norfolk, England). Due to the failure of affinity purification on a glutathione-Sepharose column, the unfractionated whole cell supernatant was used directly as a GST-tagged source for ELISA.
For the standard ELISA, His-tagged- σ^70 was diluted to 250 nM with PBS and 100 μL of the resulting solution was added to the wells of SpectraPlate-96 HB microtitre plates (PerkinElmer, Waltham, MA, USA). After an overnight incubation at 4 °C, the wells were washed with PBS and blocked at room temperature for 2 h with 400 μL of 1% (w/v) BSA dissolved in PBS. Subsequently, 100 μL of supernatant diluted in PBS containing 50 nM GST-β′ (aa 1–334) was incubated for 10 min at 37 °C with 2.5 μL of each compound dissolved in DMSO at different concentrations (or with 2.5 μL of DMSO). The addition first of the polyclonal rabbit anti-GST primary antibody (1:2000 in PBS) (Abcam, Cambridge, Cambridgeshire, England) and after incubation, of the horseradish peroxidase-conjugated goat anti-rabbit secondary antibody diluted 1:20,000 in PBS (Invitrogen™ by Life Technologies™, Carlsbad, CA, USA) allowed the detection of the interaction using the substrate for 2,2’-Azino-bis (3-Ethylbenzthiazoline-6-Sulphonic Acid) peroxidase (ABTS; SeraCare Life Sciences, Milford, MA, USA). The signal resulting from the oxidation of ABTS was determined by measuring the absorbance at 415 nm with a microplate reader (iMark™ Microplate Absorbance Reader; Bio-Rad, Hercules, CA, USA).
(In general: ELISA stands for enzyme-linked immunosorbent assay.)

A further data set deals with E. coli DH10T1R. Description: MIC assay, E. coli. As to conditions: in the presence of PMBN (2 μg/mL). The format is cell-based, Escherichia coli. On the procedure: as §3, §4
The test system of data set [3] is B. subtilis (WB800N strain). Description: Bacterial growth inhibition assay, B. subtilis. To be noted: for inhibition at 100 µM: Bacillus subtilis, 8 h, read-out: Growth Inhibition at 100 μM (8 h) B. subtilis. The format is cell-based, Bacillus subtilis.
Excerpt: as §1, §3, §2

In the next data set the test system is β′ subunit (RNAP). Also on record: method as in PMID 26764017, PMID 23751807. To be noted: cited from earlier work.
For data set [4], the target named is T2, E. coli RNAPc with recombinant σ^70 (holoenzyme) (Escherichia coli, UniProt P0A8T7).
T2 construct: purchased New England BioLabs
T2 sequence (P0A8T7 whole entry): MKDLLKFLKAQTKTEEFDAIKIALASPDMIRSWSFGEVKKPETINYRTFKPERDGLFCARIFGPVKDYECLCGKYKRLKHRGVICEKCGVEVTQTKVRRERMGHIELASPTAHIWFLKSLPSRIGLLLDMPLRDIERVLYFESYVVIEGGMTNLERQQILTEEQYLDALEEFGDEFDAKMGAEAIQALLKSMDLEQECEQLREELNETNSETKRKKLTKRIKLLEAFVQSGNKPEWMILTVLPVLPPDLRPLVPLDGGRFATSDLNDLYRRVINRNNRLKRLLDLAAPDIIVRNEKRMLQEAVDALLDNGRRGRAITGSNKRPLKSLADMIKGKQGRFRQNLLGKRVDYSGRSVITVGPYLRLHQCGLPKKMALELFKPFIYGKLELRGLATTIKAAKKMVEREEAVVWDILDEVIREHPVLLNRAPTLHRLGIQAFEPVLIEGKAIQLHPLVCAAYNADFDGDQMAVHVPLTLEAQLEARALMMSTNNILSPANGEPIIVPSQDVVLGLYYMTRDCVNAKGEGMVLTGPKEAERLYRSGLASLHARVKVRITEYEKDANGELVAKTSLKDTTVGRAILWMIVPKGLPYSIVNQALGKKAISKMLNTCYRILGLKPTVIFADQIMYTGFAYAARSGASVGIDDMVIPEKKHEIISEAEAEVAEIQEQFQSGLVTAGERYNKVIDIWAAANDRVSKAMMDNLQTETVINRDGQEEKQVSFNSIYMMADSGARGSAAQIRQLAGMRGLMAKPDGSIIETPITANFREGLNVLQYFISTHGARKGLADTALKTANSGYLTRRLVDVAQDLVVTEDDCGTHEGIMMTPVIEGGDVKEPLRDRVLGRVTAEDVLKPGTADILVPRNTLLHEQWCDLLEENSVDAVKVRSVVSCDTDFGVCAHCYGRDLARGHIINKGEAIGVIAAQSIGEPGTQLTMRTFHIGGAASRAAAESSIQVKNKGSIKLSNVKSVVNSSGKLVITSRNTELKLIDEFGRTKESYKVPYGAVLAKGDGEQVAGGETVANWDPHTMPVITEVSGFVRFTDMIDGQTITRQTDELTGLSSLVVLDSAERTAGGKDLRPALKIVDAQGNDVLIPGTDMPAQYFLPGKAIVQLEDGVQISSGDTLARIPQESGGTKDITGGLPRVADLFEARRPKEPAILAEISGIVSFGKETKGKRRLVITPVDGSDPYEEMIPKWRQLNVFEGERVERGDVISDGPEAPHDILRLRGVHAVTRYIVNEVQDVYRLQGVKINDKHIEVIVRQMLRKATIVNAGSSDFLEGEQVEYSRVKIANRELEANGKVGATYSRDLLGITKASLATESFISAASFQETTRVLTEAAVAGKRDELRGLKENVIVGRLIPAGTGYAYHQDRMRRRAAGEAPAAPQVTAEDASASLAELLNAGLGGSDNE
T2 sequence (P0A8V2 whole entry partner): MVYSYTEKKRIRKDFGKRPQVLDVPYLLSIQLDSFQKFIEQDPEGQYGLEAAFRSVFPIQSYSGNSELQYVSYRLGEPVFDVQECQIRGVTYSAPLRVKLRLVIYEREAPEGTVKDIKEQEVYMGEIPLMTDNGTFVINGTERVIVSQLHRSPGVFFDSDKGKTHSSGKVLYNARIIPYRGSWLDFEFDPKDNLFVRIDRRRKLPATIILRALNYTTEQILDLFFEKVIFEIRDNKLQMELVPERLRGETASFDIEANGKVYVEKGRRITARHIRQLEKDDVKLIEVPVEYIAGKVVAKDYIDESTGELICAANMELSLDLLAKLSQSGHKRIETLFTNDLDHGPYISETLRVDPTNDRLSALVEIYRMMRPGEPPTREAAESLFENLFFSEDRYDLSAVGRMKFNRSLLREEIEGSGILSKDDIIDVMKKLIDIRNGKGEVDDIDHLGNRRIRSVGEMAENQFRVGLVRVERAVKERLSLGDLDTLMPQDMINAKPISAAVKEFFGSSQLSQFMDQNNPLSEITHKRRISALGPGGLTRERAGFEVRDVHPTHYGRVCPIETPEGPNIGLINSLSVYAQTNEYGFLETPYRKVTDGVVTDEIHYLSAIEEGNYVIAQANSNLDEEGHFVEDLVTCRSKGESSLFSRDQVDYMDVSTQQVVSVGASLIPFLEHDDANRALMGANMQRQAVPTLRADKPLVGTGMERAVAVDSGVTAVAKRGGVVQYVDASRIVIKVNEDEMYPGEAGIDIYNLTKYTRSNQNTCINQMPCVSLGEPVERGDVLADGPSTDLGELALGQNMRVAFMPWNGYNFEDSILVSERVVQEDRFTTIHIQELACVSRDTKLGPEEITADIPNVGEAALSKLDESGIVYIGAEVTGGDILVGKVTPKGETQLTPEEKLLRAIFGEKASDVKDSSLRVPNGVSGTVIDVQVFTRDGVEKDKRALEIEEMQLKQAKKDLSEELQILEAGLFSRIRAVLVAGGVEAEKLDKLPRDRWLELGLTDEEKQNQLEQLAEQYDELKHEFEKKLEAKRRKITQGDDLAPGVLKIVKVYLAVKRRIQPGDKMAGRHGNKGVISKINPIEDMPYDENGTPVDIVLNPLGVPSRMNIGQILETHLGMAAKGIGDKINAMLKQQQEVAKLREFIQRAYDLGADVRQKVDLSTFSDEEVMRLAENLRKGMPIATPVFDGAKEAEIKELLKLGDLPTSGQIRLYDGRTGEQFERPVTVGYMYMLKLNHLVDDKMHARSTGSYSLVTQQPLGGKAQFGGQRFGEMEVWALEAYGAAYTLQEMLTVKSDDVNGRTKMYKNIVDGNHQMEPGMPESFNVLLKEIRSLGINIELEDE
T2 sequence (P0A7Z4 whole entry partner): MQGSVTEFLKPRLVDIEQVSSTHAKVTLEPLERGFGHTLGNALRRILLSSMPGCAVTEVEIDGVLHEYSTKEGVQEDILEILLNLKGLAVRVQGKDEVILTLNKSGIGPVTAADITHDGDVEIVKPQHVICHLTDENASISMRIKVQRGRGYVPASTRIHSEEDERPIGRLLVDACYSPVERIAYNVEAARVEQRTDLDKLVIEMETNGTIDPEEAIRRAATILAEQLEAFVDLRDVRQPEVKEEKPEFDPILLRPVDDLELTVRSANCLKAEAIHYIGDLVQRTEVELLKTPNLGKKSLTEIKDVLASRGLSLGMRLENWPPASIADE
T2 sequence (P0A800 whole entry partner): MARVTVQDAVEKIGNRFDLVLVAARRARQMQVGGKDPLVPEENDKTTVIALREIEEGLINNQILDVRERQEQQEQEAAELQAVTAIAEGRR
Description: Fluorescence-detected single-round in vitro transcription assay. The format is biochemical. To be noted: fluorescence-based assay.
Description: A single-round transcription assay was first performed at a fixed, 100 µM concentration.
A fluorescence-detected RNAP inhibition assay with the profluorescent substrate γ-[2′(2-benzothiazoyl)-6′-hydroxybenzothiazole)-ATP (γ-BBT-ATP, Jena Bioscience, Jena, Thuringia, Germany) was performed to verify the ability of the selected compounds to inhibit the specific transcription activity of bacterial RNA polymerase, using E. coli RNAPc (New England BioLabs, Ipswich, MA, USA) and recombinant His-tagged-σ^70 for holoenzyme reconstitution.
Two nM of a circular DNA template (pDSP) [38] were then added to a final volume of 7 µL and the resulting reaction mixture was incubated at 37 °C for 15 min. The pDSP template is a 6135 bp vector harboring two identical λpR promoters upstream of engineered, cytosine-lacking (C-less) DNA regions. When CTP is omitted from the reaction mixture, transcription reinitiation is prevented, and this allows for the single-round transcription of 24 nt and 70 nt long RNAs. […]
Ten µL of the reaction was transferred to a black 384-well plate (PE384fw_ProxiPlate) and fluorescence emission was read with Spark 10M, Tecan (Männedorf, canton of Zürich, Switzerland) (excitation wavelength 422 nm; emission wavelength 590 nm).

Turning to `N#Cc1cc2cnccc2c2[nH]c3ncc(F)cc3c12` [Compound 7], the “Growth Inhibition at 100 μM (8 h) S. cerevisiae” value (from here on “Growth Inhibition at 100 μM”) in data set [1] is 7%. In the data set with B. subtilis WB800N, the “MIC B. subtilis” value was “did not inhibit B. subtilis growth” and the MIC was > 100 µM. In the data set with E. coli (DH10T1R strain) (50 µM), the “Duration of antibacterial activity, E. coli” value is 4 h and the “E. coli growth inhibition over time” value is reported as “almost completely inhibited”. Moreover, the inhibition at 10 µM in the data set on E. coli (DH10T1R strain) (Escherichia coli, 10 µM, 8 h observation, with PMBN, read-out: E. coli growth inhibition at lowest concentration) is 38%. For the same compound, the inhibition at 100 µM in the data set on E. coli (DH10T1R strain) (Escherichia coli) turned out to be 66%. Moreover, the IC50 in data set [2] (dose–response ELISA) came out at 8.56 ± 1.82 µM. In addition, the inhibition at 100 µM in data set [2] was 86 ± 9%. Further, the “MIC E. coli” value in the data set with E. coli DH10T1R stood at 0.78 µM. The inhibition at 100 µM in data set [3] is 13%.
For `COc1cc(OC)c2c(-c3ccc(Cl)cc3)c[nH]c2c1C(=O)NNC(=O)c1c(OC)cc(OC)c2c(-c3ccc(Cl)cc3)c[nH]c12` [GKL003], the “Concentration interfering with in vitro transcription initiation” value with β′ subunit (RNAP) is on record as “nanomolar concentrations”.
As for `COc1ccc(-c2ccc(-c3oc4cc(OC(C)=O)ccc4c3OC(C)=O)cc2)cc1OC` [Compound 9], the IC50 in data set [4] turned out to be 71 ± 2.46 µM; in data set [2] (dose–response ELISA), 13.9 ± 1.86 µM. In addition, the “Growth Inhibition at 100 μM” value in data set [1] came out at 0%. For the same compound, the MIC with B. subtilis WB800N was > 100 µM. Further, the inhibition at 100 µM with E. coli (DH10T1R strain) (Escherichia coli) stood at 24%; in data set [2] it was 100%; in data set [3], 24%. For the same compound, the “E. coli growth inhibition” value with E. coli (DH10T1R strain) (concentrations ≤ 100 µM) was “failed to exert any appreciable inhibitory activity”. In addition, the “MIC E. coli” value in the data set on E. coli DH10T1R is >100 µM. In addition, the “B. subtilis growth inhibition” value in data set [3] (concentrations ≤ 100 µM) is recorded as “failed to exert any appreciable inhibitory activity”.
With `O=C(CSc1nc2ccccc2[nH]1)c1ccc2[nH]c3ncc(Cl)cc3c2c1` [Compound 19], the IC50 in data set [4] came out at 25.7 ± 1.85 µM; in data set [2] (dose–response ELISA), 40 ± 4.2 µM. For the same compound, the “Growth Inhibition at 100 μM” value in data set [1] was 0%. In addition, inhibition of growth against B. subtilis WB800N (MIC) required 100 µM (≈ 39.3 µg/mL). Also, the inhibition at 100 µM with E. coli (DH10T1R strain) (Escherichia coli) is 0%; in data set [2], 94 ± 1%; in data set [3] it was 37%. For the same compound, in data set [2] (dose–response ELISA), the “Fold less potent than reference compound 4 (binding inhibition IC50)” value was found to be 5 fold. Moreover, the “MIC E. coli” value in the data set with E. coli DH10T1R was >100 µM. For the same compound, the “B. subtilis growth inhibition over time” value in data set [3] (50 µM) was “almost completely inhibited”; in data set [3] (only at 100 µM) it was “significantly inhibited”. The “Duration of antibacterial activity, B. subtilis” value in data set [3] (50 µM) turned out to be 4 h.
